Test results from patent publication US20240385177A1, “Screening Method Using Brown Adipocytes” (KATAOKA CORPORATION, priority 2021, published 2024).
Entries after “also recorded” stand apart in the source; their conditions may differ.

Test system: low-molecular-weight compound-induced brown adipocytes (ciBAs)
Assay: Evaluation of browning tendency of ciBAs directly induced from human fibroblasts (Ucp1/Fabp4/Cidea expression, UCP1 protein, induction efficiency, mtDNA, OCR)
Type: cell-based
Conditions: human fibroblasts cultured 3 weeks
Procedure: The human fibroblasts used as material were purchased from DS Pharma Biomedical, Co., Ltd. The fibroblasts are derived from human skin. The above human fibroblasts were seeded in 35 mm dishes coated with gelatin (Cat #: 190-15805, manufactured by FUJIFILM Wako Pure Chemical Co.) at 5×10^4, and cultured in DMEM medium (Cat #: 11965092; manufactured by Gibco) supplemented with 10% fetal bovine serum (FBS), 100 U/mL penicillin, 100 μg/mL streptomycin until 80% to 90% confluency at 37° C., 5% CO2.
Then, after the human fibroblasts reached 80 to 90% confluency, the medium in the dish was replaced with the serum-free brown adipocyte-inducing medium “SFBAM” described below, and the human fibroblasts were cultured in SFBAM for 3 weeks. To induce ciBA, SFBAM was further supplemented with rosiglitazone (selective PPARγ agonist; 184-02651, manufactured by FUJIFILM Wako Pure Chemical Corporation) at a final concentration of 1 μmol/L, forskolin (cAMP inducer; 063-02193) at a final concentration of 7.5 μmol/L and BMP7 (bone morphogenetic protein; 026-19171, manufactured by FUJIFILM Wako Pure Chemical Corporation) at a final concentration of 20 ng/mL, and human fibroblasts were cultured for 3 weeks. Separately, capsaicin (TRPV1 agonist; 030-11353, manufactured by FUJIFILM Wako Pure Chemical Corporation) and/or nonivamide (TRPV1 agonist; sc-202735, Santa Cruz Biotechnology (manufactured by Santa Cruz Biotechnology, CA, USA), capsazepine (TRPV1 antagonist; 037-23171, manufactured by FUJIFILM Wako Pure Chemical Corporation), AMG9810 (TRPV1 antagonist; 015-25071, FUJIFILM Wako Pure Chemical Corporation), GSK1016790A (TRPV4 agonist; G0798, manufactured by Sigma-Aldrich) were added and human fibroblasts were cultured for 3 weeks. Medium was changed every 3 days.
SFBAM is a serum-free brown adipocyte-inducing medium prepared by adding each ingredient in Table 1 to DMEM medium (Cat #: 11965092; manufactured by Gibco).
To quantify gene expression, total RNA was extracted from fibroblasts treated with each compound using the FastGene (registered trademark) RNA basic kit (manufactured by Nippon Genetics). As a control, fibroblasts were cultured in parallel using SFBAM and total RNA was extracted from compound-induced brown adipocytes and control cells. After reverse transcription by ReverTraAce (registered trademark) PCR RT Master Mix with gDNA Remover (manufactured by Toyobo), Real-time PCR analysis was performed using Power SYBR Green PCR Master Mix (manufactured by Thermo Fisher Scientific). Three reactions were performed per level under the following conditions. • After 10 minutes at 95° C., • The cycle time is 15 seconds at 95° C., followed by 60 seconds at 60° C., for 40 cycles.
All results were standardized by the amount of Tbp mRNA.
Immunocytochemistry was performed as previously reported (Dai P, et al. J Clin Biochem Nutr. 2015; 56(3): 166-70). First, cells were fixed with 4% paraformaldehyde (manufactured by Nacalai Tesque). After washed with phosphate-buffered saline (PBS) three times, the cells were incubated with PBS containing 0.1% Triton X-100 for 10 minutes. The cells were then blocked with PBS containing 3% skim milk for 1hour at room temperature. UCP-1 antibodies (ab10983, manufactured by Abcam, Cambridge, UK) were diluted 1/500 with the blocking solutions. The cells were incubated with the antibodies overnight at 4° C. […] All images were acquired using a fluorescence microscopy (BZ-X710-All-in-One Fluorescence Microscope, manufactured by Keyence). […]

[1] = TRPV1 antagonist added to culture with RoFB and capsaicin (25 μmol/L), FIGS. 8, 9
[2] = compound added to SFBAM with rosiglitazone, forskolin and BMP7 (RoFB), FIGS. 1-7, 10-12

Row | Compound | browning tendency of ciBAs [1] | browning tendency of ciBAs [2]
1 | CC(C)(C)c1ccc(/C=C/C(=O)Nc2ccc3c(c2)OCCO3)cc1 [AMG9810] | suppressed the browning tendency | 
2 | CC(C)C[C@H](NC(=O)c1cc2ccccc2s1)C(=O)N1CCN(C(=O)[C@H](CO)NS(=O)(=O)c2ccc(Cl)cc2Cl)CC1 [GSK1016790A] |  | suppressed; also recorded: inhibits adipocyte browning
3 | COc1cc(CNC(=O)CCCC/C=C/C(C)C)ccc1O [capsaicin] |  | enhanced; also recorded: promotes adipocyte browning
4 | Oc1cc2c(cc1O)CN(C(=S)NCCc1ccc(Cl)cc1)CCC2 [capsazepine] | suppressed the browning tendency | 
5 | CCCCCCCCC(=O)NCc1ccc(O)c(OC)c1 [nonivamide] |  | increased the browning tendency
